Test results taken from article PMC4529401 (Pharmaceutical research, 2015).
Where two headings read alike, the source gives them in different places.

Experiments:
human OCT2 [1] = molecular target: T1, human OCT2 (Homo sapiens, UniProt O15244); assay: Transport of TEA and MPP in CHO cells that stably expressed human OCT2; type: cell-based; conditions: for true Kt for OCT2-mediated transport (suggested): authors' estimate in the discussion; for Ktapp of uptake: 30 sec uptakes
T1 sequence (O15244 1-555): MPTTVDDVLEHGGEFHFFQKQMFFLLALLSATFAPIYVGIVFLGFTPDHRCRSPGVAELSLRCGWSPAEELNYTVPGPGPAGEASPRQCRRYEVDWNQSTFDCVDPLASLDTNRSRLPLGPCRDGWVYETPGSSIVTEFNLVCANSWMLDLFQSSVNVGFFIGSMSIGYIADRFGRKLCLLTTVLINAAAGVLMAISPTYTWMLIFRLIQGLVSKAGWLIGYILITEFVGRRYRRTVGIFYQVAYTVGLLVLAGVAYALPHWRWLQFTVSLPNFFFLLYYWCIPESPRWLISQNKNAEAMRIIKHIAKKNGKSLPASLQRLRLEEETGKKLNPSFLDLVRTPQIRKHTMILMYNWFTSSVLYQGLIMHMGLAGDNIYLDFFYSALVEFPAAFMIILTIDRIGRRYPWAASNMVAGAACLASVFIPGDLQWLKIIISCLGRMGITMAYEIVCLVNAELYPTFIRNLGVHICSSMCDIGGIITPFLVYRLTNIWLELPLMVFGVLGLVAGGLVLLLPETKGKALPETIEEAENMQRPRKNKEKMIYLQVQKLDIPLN

human OCT2 [2] = molecular target: T1, human OCT2; conditions: ref Morales & Wright, unpublished; cited from earlier work
human OCT2 [3] = molecular target: T1, human OCT2; assay: Literature kinetic parameters for OCT2-mediated transport, cells; type: cell-based; conditions: median of the values in Table I
[4] = OCT2 knockdown cells (shRNA #6), paired studies, three (TEA) or four (MPP)
[5] = control (fully expressing) cells, paired studies, three (TEA) or four (MPP)
[6] = control (unshaken), 96 well plate, n=3
[7] = shaken (reciprocal, 13 Hz), 96 well plate, n=3

With C[n+]1ccc(-c2ccccc2)cc1 [MPP, 1-Methyl-4-phenylpyridinium] the “increase of 30 sec uptake by shaking” value (human OCT2 [1]; 24 well plate, flat-bed orbital shaker 300 rpm (5 Hz), [3H] substrate, P < 0.05) was 50%, the Jmax (human OCT2 [1]; [4]) was 6.1 ± 1.2 pmol cm^−2 min^−1 and the “apparent Kt” value (human OCT2 [1]; [4]) was 3.8 ± 0.5 µM. The Ktapp (human OCT2 [1]; OCT2 knockdown cells, six paired experiments (n = 6)) was 3.3 ± 0.9 µM, the Jmax (human OCT2 [1]; Table I, present study) was 35 pmol cm^−2 min^−1 and the Ktapp (human OCT2 [1]; Table I, present study) was 9 µM. The “true Kt for OCT2-mediated transport (suggested)” value (human OCT2 [1]) was 1 to 2 µM, the “Winne ‘bias’” value (human OCT2 [1]; calculated from present study Jmax and a 1500 µm UWL) was 7 µM and the “maximum transport rates, fold lower than in parental OCT2-expressing cells” value (human OCT2 [1]; cells with reduced OCT2 expression (RNAi)) was 11 fold. The Jmax (human OCT2 [1]; [5]) was 64.7 ± 16.6 pmol cm^−2 min^−1, the “apparent Kt” value (human OCT2 [1]; [5]) was 16.6 ± 4.0 µM and the Ktapp of uptake (human OCT2 [1]; [6]) was 6.5 ± 0.4 µM. The Jmax (human OCT2 [1]; [6]) was 35.4 ± 1.4 pmol cm^−2 min^−1, the “estimated true Kt” value (human OCT2 [1]; intercept of the Jmax vs Ktapp relationship (linear regression)) was 1.8 ± 1.6 µM and the “reduction in the 15 sec uptake in OCT2 knockdown cells” value (human OCT2 [1]; knockdown (shRNA #6) vs control cells, […] [14C]TEA plus 1.0 nM [3H]MPP) was 55%. For the same molecule, the “reduction of Jmax in OCT2 knockdown cells” value (human OCT2 [1]; knockdown vs control cells) was 90%, the Ktapp of uptake (human OCT2 [1]; [7]) was 4.5 ± 0.5 µM and the Jmax (human OCT2 [1]; [7]) was 37.4 ± 2.5 pmol cm^−2 min^−1.

For CN(C)C(=N)N=C(N)N [Metformin], the “true Kt for OCT2-mediated transport (suggested)” value (human OCT2 [1]) is listed as ~ 1000 µM, the Jmax (human OCT2 [2]) is listed as 265 pmol cm^−2 min^−1 and the Ktapp (human OCT2 [2]) is listed as 378 µM. The “median Jmax” value (human OCT2 [3]) was ~ 350 pmol cm^−2 min^−1.
